Reference: US11319306B2, “Compositions and methods for treating neurodegenerative diseases” (Azevan Pharmaceuticals, Inc., priority 2014, dated 2022)
pIC50, pKi: −log10 of the molar value.

Target: T1, human V1a receptor (Homo sapiens, UniProt P37288)
T1 construct: host or cells: CHO cells (hV1a cell line)
Test: Human vasopressin V1a receptor binding assay (3H-AVP competition, hV1a CHO cells)
Settings: 3H-AVP competition, CHO cells expressing human V1a; for pIC50: read-out: V1a Binding Affinity IC50; for pKi: read-out: V1a Ki
Description: Human vasopression V1a receptor binding assay. A cell line expressing the human V1a receptor in CHO cells (henceforth referred to as the hV1a cell line) was obtained from Dr. Michael Brownstein, NIMH, Bethesda, Md., USA. The hV1a cDNA sequence is described by Thibonnier et al., Journal of Biological Chemistry, 269, 3304-3310 (1994), and the expression method was the same as described by Morel et al. (1992). The hV1a cell line was grown in alpha-MEM with 10% fetal bovine serum and 250 ug/ml G418 (Gibco, Grand Island, N.Y., USA). For competitive binding assay, hV1a cells were plated into 6-well culture plate at 1:10 dilution from a confluency flask, and maintained in culture for at least two days. Culture medium was then removed, cells were washed with 2 ml binding buffer (25 mM Hepes, 0.25% BSA, 1×DMEM, PH=7.0). To each well, 990 μl binding buffer containing InM 3H-AVP was added, and followed by 10 μl series diluted Example compounds dissolved in DMSO. […] 100 nM cold AVP (Sigma) was used to assess non-specific binding. Cells were incubated for 45 minutes at 37° C., assay mixture was removed and each well was washed three times with PBS (pH=7.4). 1 ml 2% SDS was added per well and plates were let sit for 30 minutes. The whole content in a well was transferred to a scintillation vial. Each well was rinsed with 0.5 ml PBS which was then added to the corresponding vial. Scintillation fluid (Ecoscint, National Diagnostics, Atlanta, Ga.) was then added at 3 ml per vial. Samples were counted in a liquid scintillation counter (Beckman LS3801). IC50 values were calculated by Prism Curve fitting software.
All of the alkanedioic esters and amides exemplified in the foregoing examples dissolved in DMSO were tested in this assay. Binding curves were generated according to methods described by Thibonnier et al. (1994). [^3H]-AVP was added to the hV1a cell cultures followed by 10-fold dilutions of each test compound.

T1 sequence (P37288 whole entry): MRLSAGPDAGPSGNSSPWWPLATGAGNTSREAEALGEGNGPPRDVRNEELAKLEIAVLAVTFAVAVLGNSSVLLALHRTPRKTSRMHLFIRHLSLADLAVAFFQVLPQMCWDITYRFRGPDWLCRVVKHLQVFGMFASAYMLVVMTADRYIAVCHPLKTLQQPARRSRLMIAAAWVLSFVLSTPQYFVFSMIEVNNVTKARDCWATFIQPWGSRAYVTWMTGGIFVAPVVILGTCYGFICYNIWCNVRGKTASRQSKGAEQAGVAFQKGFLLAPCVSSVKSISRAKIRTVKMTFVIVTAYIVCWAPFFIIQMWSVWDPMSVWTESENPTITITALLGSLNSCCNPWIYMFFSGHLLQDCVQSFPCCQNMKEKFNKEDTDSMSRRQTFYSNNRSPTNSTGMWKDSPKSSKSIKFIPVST

| Structure (SMILES) | pIC50 | pKi |
| --- | --- | --- |
| O=C(NCc1cccc(C(F)(F)F)c1)C(CCC(=O)N1CCN(C2CCCCC2)CC1)N1C(=O)C(N2C(=O)OCC2c2ccccc2)C1C(Cl)=Cc1ccccc1 (stereo not shown) [Example 226] | 9.31 | 9.52 |
| CCN1CCN(C(=O)CCC(C(=O)NCc2cccc(C(F)(F)F)c2)N2C(=O)C(N3C(=O)OCC3c3ccccc3)C2C(Cl)=Cc2ccccc2)CC1 (stereo not shown) [Example 228] | 7.87 | 8.08 |
| CCCCN1CCN(C(=O)CCC(C(=O)NCc2cccc(C(F)(F)F)c2)N2C(=O)C(N3C(=O)OCC3c3ccccc3)C2C(Cl)=Cc2ccccc2)CC1 (stereo not shown) [Example 229] | 8.82 | 9.03 |
| CC(C)N1CCN(C(=O)CCC(C(=O)NCc2cccc(C(F)(F)F)c2)N2C(=O)C(N3C(=O)OCC3c3ccccc3)C2C(Cl)=Cc2ccccc2)CC1 (stereo not shown) [Example 230] | 8.15 | 8.36 |
| O=C(C(COCc1ccccc1)N1C(=O)C(N2C(=O)OCC2c2ccccc2)C1C=Cc1ccccc1)N1CCC(N2CCCCC2)CC1 (stereo not shown) [Example 232] | 8.86 | 9.08 |
| O=C(C(COCc1ccccc1)N1C(=O)C(N2C(=O)OCC2c2ccccc2)C1C=Cc1ccccc1)N1CCC(CCN2CCCCC2)CC1 (stereo not shown) [Example 233] | 9.25 | 9.47 |
| O=C([C@@H](CSCc1ccccc1)N1C(=O)[C@@H](N2C(=O)OC[C@@H]2c2ccccc2)[C@H]1/C=C/c1ccccc1)N1CCC(CCN2CCCCC2)CC1 [Example 238, (2S)-(Benzylthiomethyl)-2-[3(S)-(4(S)-phenyloxazolidin-2-on-3-yl)-4(R)-(2-styryl)azetidin-2-on-1-yl]acetic acid N-[4-[2-(piperid-1-yl)ethyl]piperidin-1-yl]amide] | 9.96 | 10.15 |
| CCN1CCN(C(=O)CC[C@@H](C(=O)NC2(c3ccccc3)CCCC2)N2C(=O)[C@@H](N3C(=O)OC[C@@H]3c3ccccc3)[C@H]2/C=C/c2ccccc2)CC1 [Example 239] | 8.18 | 8.40 |
| O=C(NC1(c2ccccc2)CCCC1)[C@H](CCC(=O)N1CCN(Cc2ccccc2)CC1)N1C(=O)[C@@H](N2C(=O)OC[C@@H]2c2ccccc2)[C@H]1/C=C/c1ccccc1 [Example 240] | 7.60 | 7.81 |
| O=C(N[C@@H]1CCCc2ccccc21)[C@H](CCC(=O)N1CCN(C2CCCC2)CC1)N1C(=O)[C@@H](N2C(=O)OC[C@@H]2c2ccccc2)[C@H]1/C=C/c1ccccc1 [Example 241] | 8.70 | 8.91 |
| COc1cccc(/C=C/[C@@H]2[C@H](N3C(=O)OC[C@@H]3c3ccccc3)C(=O)N2[C@@H](CCC(=O)N2CCN(C3CCCCC3)CC2)C(=O)N[C@@H]2CCCc3ccccc32)c1 [Example 242] | 8.66 | 8.87 |
| O=C(N[C@@H]1CCCc2ccccc21)[C@H](CCC(=O)N1CCN(C2CCCCC2)CC1)N1C(=O)[C@@H](N2C(=O)OC[C@@H]2c2ccccc2)[C@H]1/C=C/c1cccc(Cl)c1 [Example 243] | 9.30 | 9.52 |
| O=C(NC1(c2ccccc2)CCCC1)[C@H](CCC(=O)N1CCN(C2CCCCC2)CC1)N1C(=O)[C@@H](N2C(=O)OC[C@@H]2c2ccccc2)[C@H]1/C=C/c1cccc(Cl)c1 [Example 244] | 8.47 | 8.68 |
| O=C(N[C@@H]1CCCc2ccccc21)[C@H](CCC(=O)N1CCN(C2CCCCC2)CC1)N1C(=O)[C@@H](N2C(=O)OC[C@@H]2c2ccccc2)[C@H]1/C=C/c1cccc(F)c1 [Example 245] | 8.96 | 9.17 |
| O=C(N[C@@H]1CCCc2ccccc21)[C@H](CCC(=O)N1CCN(C2CCCCC2)CC1)N1C(=O)[C@@H](N2C(=O)OC[C@@H]2c2ccccc2)[C@H]1/C=C/c1cccc(C(F)(F)F)c1 [Example 246] | 8.68 | 8.89 |
| N#Cc1cccc(/C=C/[C@@H]2[C@H](N3C(=O)OC[C@@H]3c3ccccc3)C(=O)N2[C@@H](CCC(=O)N2CCN(C3CCCCC3)CC2)C(=O)N[C@@H]2CCCc3ccccc32)c1 [Example 248] | 8.28 | 8.48 |
| O=C(N[C@@H]1CCCc2ccccc21)[C@H](CCC(=O)N1CCN(C2CCCCC2)CC1)N1C(=O)[C@@H](N2C(=O)OC[C@@H]2c2ccccc2)[C@H]1/C=C/c1cccc([N+](=O)[O-])c1 [Example 249] | 8.77 | 9.00 |
| O=C(N[C@@H]1CCCc2ccccc21)[C@H](CCC(=O)N1CCN(C2CCCCC2)CC1)N1C(=O)[C@@H](N2C(=O)OC[C@@H]2c2ccccc2)[C@H]1/C=C/c1ccccc1Cl [Example 250] | 8.19 | 8.40 |
| O=C(N[C@@H]1CCCc2ccccc21)[C@H](CCC(=O)N1CCN(C2CCCCC2)CC1)N1C(=O)[C@@H](N2C(=O)OC[C@@H]2c2cccc(Cl)c2)[C@H]1/C=C/c1cccc(Cl)c1 [Example 251] | 9.30 | 9.52 |
| O=C(N[C@@H]1CCCc2ccccc21)[C@H](CCC(=O)N1CCN(C2CCCCC2)CC1)N1C(=O)[C@@H](N2C(=O)OC[C@@H]2c2ccccc2)[C@H]1/C=C/c1cc(Cl)cc(Cl)c1 [Example 252] | 8.74 | 8.96 |
| CC(NC(=O)C(CC(=O)N1CCC(N2CCCCC2)CC1)N1C(=O)C(N2C(=O)OCC2c2ccccc2)C1C=Cc1cccc(Cl)c1)c1ccccc1 (stereo not shown) [Example 559] | 9.92 | 10.14 |
| CC(NC(=O)C(CC(=O)N1CCC(CN2CCCCC2)CC1)N1C(=O)C(N2C(=O)OCC2c2ccccc2)C1C=Cc1ccccc1)c1ccccc1 (stereo not shown) [Example 601] | 9.00 | 9.21 |
| CC(NC(=O)C(CC(=O)N1CCC(N2CCCCC2)CC1)N1C(=O)C(N2C(=O)OCC2c2ccccc2)C1C=Cc1cccc(Br)c1)c1ccccc1 (stereo not shown) [Example 606] | 9.28 | 9.49 |

More lines, now with the values ahead:

| pIC50 | pKi | Structure (SMILES) |
| --- | --- | --- |
| 7.92 | 8.13 | O=C(NC1(c2ccc(F)cc2)CCCC1)C(CCC(=O)N1CCN(C2CCCCC2)CC1)N1C(=O)C(N2C(=O)OCC2c2ccccc2)C1C=Cc1ccccc1 (stereo not shown) [Example 221I] |
| 8.08 | 8.29 | O=C(CCC(C(=O)N1CCc2ccccc2C1)N1C(=O)C(N2C(=O)OCC2c2ccccc2)C1C=Cc1ccccc1)N1CCN(C2CCCCC2)CC1 (stereo not shown) [Example 221O] |
| 7.74 | 7.95 | O=C(NC(CCO)c1ccccc1)C(CCC(=O)N1CCN(C2CCCCC2)CC1)N1C(=O)C(N2C(=O)OCC2c2ccccc2)C1C=Cc1ccccc1 (stereo not shown) [Example 221Q] |
| 8.30 | 8.51 | O=C(NC1CCc2ccccc21)C(CCC(=O)N1CCN(C2CCCCC2)CC1)N1C(=O)C(N2C(=O)OCC2c2ccccc2)C1C=Cc1ccccc1 (stereo not shown) [Example 221S] |
| 7.94 | 8.14 | O=C(CCC(C(=O)NC1CCCc2ccccc21)N1C(=O)C(N2C(=O)OCC2c2ccccc2)C1C=Cc1ccccc1)NCCN1CCCCC1 (stereo not shown) [Example 221X] |
| 8.12 | 8.33 | O=C(NC1CCCc2ccccc21)C(CCC(=O)N1CCCC1CN1CCCC1)N1C(=O)C(N2C(=O)OCC2c2ccccc2)C1C=Cc1ccccc1 (stereo not shown) [Example 221Y] |
| 7.90 | 8.11 | CCCCN1CCN(C(=O)CCC(C(=O)NCc2cccc(C(F)(F)F)c2)N2C(=O)C(N3C(=O)OCC3c3ccccc3)C2C(Br)=Cc2ccccc2)CC1 (stereo not shown) [Example 230L] |
| 8.69 | 8.90 | O=C(C(COCc1ccccc1)N1C(=O)C(N2C(=O)OCC2c2ccccc2)C1C=Cc1ccccc1)N1CCN(C2CCCCC2)CC1 (stereo not shown) [Example 232D] |
| 9.55 | 9.77 | O=C([C@@H](COCc1ccccc1)N1C(=O)[C@@H](N2C(=O)OC[C@@H]2c2ccccc2)[C@H]1/C=C/c1ccccc1)N1CCC(CN2CCCCC2)CC1 [Example 232E] |
